Test results reported in US11795213B2, “Methods and compositions for treating celiac disease” (Beth Israel Deaconess Medical Center, Inc., priority 2010, dated 2023).

Key:
THP-1 = assay: Cytokine secretion by stimulated THP-1 monocytic cells (ELISA); type: cell-based, human
Text: (§1) To examine how far gliadin elicits innate immune responses, we stimulated the human monocytic cell lines THP-1 and U937 with different concentrations of gliadin digested with pepsin and trypsin (PT gliadin) and measured secretion of proinflammatory cytokines in the supernatant. A digest of zein, partly homolgous storage proteins from corn that lack toxicity for patients with celiac disease, served as negative control. […] To rule out LPS contamination as trigger of innate responses, gliadin, LPS, and TNF-α were digested with proteinase K, completely digesting and abrogating all peptide-related activities.
(§2) THP-1, U937, HEK-293 (all from ATCC, Manassas, VA), and HEK-293 cells stably transfected with the TLR4-CD14-MD2 complex (Invivogen) were cultured in complete RPM or DMEM (Cellgro, Manassas, VA) supplemented with penicillin/streptomycin and 10% fetal calf serum at 37° C. in a 5% CO2 atmosphere.
(§3) For stimulation cells were seeded on polystyrene wells at a density of 1×10^6/ml. Unless otherwise stated supernatants were harvested after a 16 hr incubation with various stimulants.
After proteinase K inactivation by boiling for 5 minute the digests were used for cell stimulation.
(§4) The concentration of IL-8, TNF-α, MCP-1, RANTES, and mouse IL-8 (KC) in cell culture supernatants and serum samples was determined using validated ELISAs (IL-8, hTNFα: BD Pharmingen, San Jose, CA; MCP-1, hRANTES, mRANTES, KC: R&D Systems, (Minneapolis, MN; mTNFα: eBioscience, San Diego, CA), according to the manufacturer's protocols.

[1] = test system: intestinal epithelial cell lines (HT29, Caco-2 and T84); assay: Cytokine secretion by intestinal epithelial cell lines; type: cell-based; details: even at 40 μg/ml
Procedure: as §3, §4

U937 = assay: Cytokine secretion by stimulated U937 monocytic cells (ELISA); type: cell-based, human; details: even at 40 μg/ml
Text: as §1, §2, §3, §4

celiac biopsies = details: shown previously; cited from earlier work
[2] = target: T1, human TLR4-CD14-MD2-complex (Homo sapiens, UniProt O00206+Q9Y6Y9); assay: IL-8 secretion by HEK-293 cells transfected with TLR4-CD14-MD2 complex; type: cell-based; details: for IL-8 secretion: TLR4-CD14-MD2 transfected HEK-293; for stimulatory activity after additional purification using an endotoxin depletion column: 5 μg/ml, IL-8 after 24 h, FIG. 9C
T1 construct: host or cells: HEK-293 (stably transfected)
T1 sequence (O00206 24-839): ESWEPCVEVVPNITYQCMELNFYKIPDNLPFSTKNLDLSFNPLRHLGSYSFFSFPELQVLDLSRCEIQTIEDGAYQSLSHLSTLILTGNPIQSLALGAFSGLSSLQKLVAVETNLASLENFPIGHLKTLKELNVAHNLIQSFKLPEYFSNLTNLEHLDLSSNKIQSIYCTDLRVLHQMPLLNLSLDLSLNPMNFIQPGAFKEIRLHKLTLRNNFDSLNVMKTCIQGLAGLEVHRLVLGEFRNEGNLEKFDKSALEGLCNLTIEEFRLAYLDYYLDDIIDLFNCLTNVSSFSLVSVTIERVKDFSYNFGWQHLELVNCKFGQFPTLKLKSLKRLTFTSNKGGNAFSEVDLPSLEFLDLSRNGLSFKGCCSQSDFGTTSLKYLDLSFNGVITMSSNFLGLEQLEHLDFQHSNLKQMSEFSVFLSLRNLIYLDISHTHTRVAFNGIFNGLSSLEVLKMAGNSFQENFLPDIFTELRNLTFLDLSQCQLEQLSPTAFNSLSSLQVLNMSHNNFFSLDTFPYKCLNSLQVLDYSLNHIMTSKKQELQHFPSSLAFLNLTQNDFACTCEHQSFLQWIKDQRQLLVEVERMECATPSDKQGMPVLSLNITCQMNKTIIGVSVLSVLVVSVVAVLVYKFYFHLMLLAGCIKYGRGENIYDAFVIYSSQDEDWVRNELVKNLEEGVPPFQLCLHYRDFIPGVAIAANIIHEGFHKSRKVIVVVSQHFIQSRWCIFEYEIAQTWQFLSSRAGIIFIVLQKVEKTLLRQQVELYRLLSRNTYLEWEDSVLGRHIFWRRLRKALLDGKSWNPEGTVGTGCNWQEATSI
T1 sequence (Q9Y6Y9 17-160 limits assumed): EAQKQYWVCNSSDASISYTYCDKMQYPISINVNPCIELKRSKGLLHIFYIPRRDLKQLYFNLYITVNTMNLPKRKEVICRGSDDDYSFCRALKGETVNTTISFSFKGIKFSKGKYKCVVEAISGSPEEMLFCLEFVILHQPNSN
Procedure: as §2, §3, §4
While sufficient CM3 protein was secreted into the media, 0.19 ATI had to be isolated from the detergent-soluble fraction. Briefly, HEK-cells expressing 0.19 were washed with ice cold-PBS, resuspended in 50 ml of buffer C for 15 min on ice, and centrifuged at 14,000 rpm for 20 min at 4° C. Thus, the solubilized 0.19 and soluble CM3 were bound to Flag-M2 agarose (Sigma-Aldrich) pre-equilibrated with buffer C by gentle shaking for 3 h at 4° C., washed three times with buffer C, and further washed three times with buffer D (Buffer C without detergents). Bound ATIs were eluted with TBS [pH 7.4] containing Flag peptide (Sigma-Aldrich). In order to rigorously exclude endotoxin, eluted CM3 and 0.19 were also applied to an entotoxin removal column (Norgen Biotek corp., Thorold, ON, Canada). ATIs were the used at 5 μg/ml to stimulate HEK-293 cells stably transfected with the TLR4-CD14-MD2 complex, and IL-8 secretion was quantified after 24 h using the IL-8 ELISA as described above.

[3] = test system: peritoneal macrophages of C3H/HeJ mice that lack TLR4 responses; assay: Cytokine secretion by peritoneal macrophages of TLR4 deficient C3H/HeJ versus C3H/HeOuJ mice; type: cell-based, mouse; details: TLR4 deficient C3H/HeJ compared to syngenic C3H/HeOuJ TLR4 competent mice
Procedure: Since MyD88 transmits signals from several TLRs, we studied peritoneal macrophages of C3H/HeJ mice that lack TLR4 responses due to a spontaneous point mutation in the TLR4 gene.
Murine resident peritoneal macrophages were isolated by peritoneal lavage using a 3 ml syringe and 18 G needles. Three 3 ml of sterile PBS was injected into the peritoneal cavity and reaspirated after gentle massage of the abdomen. For further purification MACS separation for CD11b positive cells was done according to the manufacturer's protocol (Miltenyi).
as §3
C3H/HeJ, C3H/HeOuJ and Rag1−/− mice were obtained from The Jackson Laboratory (Bar Harbour, ME). The MyD88−/− mice were a kind gift from S. Akira, (Osaka University, Osaka, Japan). Congenic C57BL/6J mice served as experimental controls and were bred under the same conditions in the same facility. All experiments were done with mice at age 5-7 weeks.
as §4

TLR4-pathway = assay: Downstream signaling by CM3 and 0.19 overexpression in TLR4-CD14-MD2 expressing HEK-293 cells (Western blot); type: cell-based; details: overexpression in TLR4/MD2/CD14 expressing HEK-293 cells
Procedure: FIG. 9D is a western blot showing expression of CM3 and 0.19 in TLR4-CD14-MD2 expressing HEK-293 cells (HEK-TLR4) induces downstream signaling of the canonical (p-NF-κB/p65) and the alternative (p-IRF3) pathways. Western blots of whole cell lysates (50 μg protein).
HEK-293 cells stably expressing TLR4-CD14-MD2 were induced to express CM3 or 0.19, respectively, followed by cell lysis in buffer C. Lysates were cleared by centrifugation at 14,000 rpm for 20 min at 4° C., and 50 μg of protein run on a 15% SDS-gel and subjected to Western blotting to analyze activation of the canonical and the alternative (p-IRF3) pathways using antibodies to phosphorylated and unphosphorylated (p-NF-κB/p65) and IRF3 (all from Cell Signaling Technology, Danvers, MA).

[4] = test system: human monocyte-derived dendritic cells (DC); assay: Cytokine secretion by human monocyte-derived dendritic cells (ELISA); type: cell-based
Procedure: For isolation of peripheral monocytes 40 ml blood was obtained from 11 patients with celiac disease during their diagnostic workup (median 37 years, range 18-59 years), after prior informed consent Eight patients were on gluten free diet and in clinical remission, three patients were newly diagnosed and therefore on a regular gluten containing diet Control monocytes were from the buffy coat of leukopheresis concentrates of anonymous blood donors. Whole EDTA blood or leukapheresis concentrates were subjected to density gradient centrifugation over Ficoll-Hypaque (GE Healthcare, Pittsburgh, PA) and CD14-positive monocytes purified by MACS separation according to the manufacturer's protocol (Miltenyi, Bergisch Gladbach, Germany). For generation of dendritic cells, monocytes were cultured in RPMI supplemented with 10% fetal calf serum, 200 U/ml rhIL-4 and 300 U/ml rhGM-CSF (both from PeproTech, Rocky Hill, NJ) for 6-8 days.
For stimulation cells were seeded on polystyrene wells at a density of 1×10^6/ml. […]
as §4

For “LGQQQPFPPQQPY [p31-43, Peptide p31-43 of α-gliadin]”, which IL-8 secretion (THP-1; even at 40 μg/ml) is on record?
Its IL-8 secretion is “did not elicit secretion”.

And the MCP-1 secretion (THP-1; even at 40 μg/ml)?
The MCP-1 secretion was “did not elicit secretion”.

What about the TNF-α secretion (THP-1; even at 40 μg/ml) of the same molecule?
The TNF-α secretion was “did not elicit secretion”.

And the IL-8 secretion [1]?
Its IL-8 secretion is “did not elicit secretion”.

What about the MCP-1 secretion [1] of the same molecule?
Its MCP-1 secretion is “did not elicit secretion”.

And the TNF-α secretion [1]?
Its TNF-α secretion is “did not elicit secretion”.

What about the IL-8 secretion (U937) of the same molecule?
Its IL-8 secretion is “did not elicit secretion”.

And the MCP-1 secretion (U937)?
Its MCP-1 secretion is “did not elicit secretion”.

What about the TNF-α secretion (U937) of the same molecule?
Its TNF-α secretion is “did not elicit secretion”.

What about the IL-15 secretion (celiac biopsies) of the same molecule?
The IL-15 secretion was “increases IL-15 secretion”.

For “N-Palmitoyl-S-[2,3-bis(palmitoyloxy)-(2RS)-propyl]-[R]-cysteinyl-[S]-seryl-[S]-lysyl-[S]-lysyl-[S]-lysyl-[S]-lysine x3 HCl [Pam3CSK4]”, which IL-8 secretion [2] is on record?
Its IL-8 secretion is “absence of IL-8 induction”.

What about the “KC (IL-8) secretion” value [3] of the same molecule?
Its value is “equally high amounts”.

And the TNF-α secretion [3]?
Its TNF-α secretion is “equally high amounts”.

With TNF-α as the molecule, how does the “IL-8 induction after proteinase K digestion of the stimulant” value (THP-1; 20 μg/ml proteinase K, 4 hrs at 56° C., FIG. 1F) read?
Its value is “lost its stimulatory capacity”.

B1: 0.19: recombinant flag-tagged wheat alpha amylase inhibitor 0.19 (SEQ ID NO: 2) expressed in HEK-293 cells (protein, listed as Triticum aestivum)
chain: SGPWMCYPGQAFQVPALPACRPLLRLQCNGSQVPEAVLRDCCQQLAHISEWCRCGALYSMLDSMYKEHGAQEGQAGTGAFPRCRREVVKLTAASITAVCRLPIVVDASGDGAYVCKDVAAYPD
modifications: FLAG tag
With B1 as the molecule, how does the “stimulatory activity after additional purification using an endotoxin depletion column” value [2] read?
Its value is “maintained”.

And the IL-8 secretion [2]?
The IL-8 secretion was “stimulated”.

And the “alternative TLR4-pathway (p-IRF3)” value (TLR4-pathway)?
Its value is “strongly induced”.

And the “canonical TLR4-pathway (p-NF-κB/p65)” value (TLR4-pathway)?
Its value is “strongly induced”.

B2: CM3: recombinant flag-tagged wheat alpha amylase inhibitor CM3 (SEQ ID NO: 1) expressed in HEK-293 cells (protein)
chain: MACKSSCSLLLLAAVLLSVLAAASASGSCVPGVAFRTNLLPHCRDYVLQQTCGTFTPGSLPEWMTSASIYSPGKPYLAKLYCCQELAEISQQCRCEALRYFIALPVPSQPVDPRSGNVGESGLIDLPGCPREMQWDFVRLLVAPGQCNLATIHNVRYCPAVEQPLWIDYKDDDDK
modifications: FLAG tag
With B2 as the molecule, how does the “stimulatory activity after additional purification using an endotoxin depletion column” value [2] read?
Its value is “maintained”.

What about the IL-8 secretion [2] of the same molecule?
Its IL-8 secretion is “stimulated”.

What about the “alternative TLR4-pathway (p-IRF3)” value (TLR4-pathway) of the same molecule?
Its value is “strongly induced”.

What about the “canonical TLR4-pathway (p-NF-κB/p65)” value (TLR4-pathway) of the same molecule?
The value was “strongly induced”.

And the IL-8 secretion [4]?
Its IL-8 secretion is “upregulated IL-8 secretion”.
